{"source": "paper PMC9709915", "about": "“A Single Point Mutation Blocks the Entrance of Ligands to the Cannabinoid CB2 Receptor via the Lipid Bilayer” (Journal of Chemical Information and Modeling, 2022)", "test_in_all_cases": "inhibition of forskolin-stimulated cAMP, Lance-Ultra cAMP kit, HTRF", "format_in_all_cases": "cell-based", "key": {"CB2R (hCB2R) [1]": {"molecular_target": "T1, CB2R (hCB2R) (Homo sapiens, UniProt P34972)", "T1 construct": "gene CNR2; full-length hCB2R cDNA in pcDNA3.1, transiently expressed in HEK-293T cells; no tag mentioned", "excerpt": "(§1) inhibition of forskolin-stimulated cAMP, Lance-Ultra cAMP kit, HTRF on CB2R (hCB2R)"}, "CB2R (hCB2R) [2]": {"molecular_target": "T2, CB2R (hCB2R) (Homo sapiens, UniProt P34972, A282F)", "T2 construct": "gene CNR2; full-length hCB2R cDNA in pcDNA3.1, transiently expressed in HEK-293T cells; no tag mentioned", "T2 sequence (P34972 whole entry A282F)": "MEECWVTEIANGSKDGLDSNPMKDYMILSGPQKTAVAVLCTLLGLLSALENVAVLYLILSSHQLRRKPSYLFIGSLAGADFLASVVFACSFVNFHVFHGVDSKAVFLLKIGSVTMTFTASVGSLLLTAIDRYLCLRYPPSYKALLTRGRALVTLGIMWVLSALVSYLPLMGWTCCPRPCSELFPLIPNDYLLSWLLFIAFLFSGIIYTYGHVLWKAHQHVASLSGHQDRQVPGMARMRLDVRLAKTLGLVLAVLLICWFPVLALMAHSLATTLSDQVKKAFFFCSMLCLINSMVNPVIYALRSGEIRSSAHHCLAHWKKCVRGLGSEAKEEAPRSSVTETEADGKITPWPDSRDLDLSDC", "excerpt": "as §1"}, "CB2R (hCB2R) [3]": {"molecular_target": "T3, CB2R (hCB2R) (Homo sapiens, UniProt P34972, A282M)", "T3 construct": "gene CNR2; full-length hCB2R cDNA in pcDNA3.1, transiently expressed in HEK-293T cells; no tag mentioned", "T3 sequence (P34972 whole entry A282M)": "as the sequence (P34972 whole entry A282F) above, with F282M counted along it", "excerpt": "as §1"}, "CB2R (hCB2R) [4]": {"molecular_target": "T4, CB2R (hCB2R) (Homo sapiens, UniProt P34972, V36F)", "T4 construct": "gene CNR2; full-length hCB2R cDNA in pcDNA3.1, transiently expressed in HEK-293T cells; no tag mentioned", "T4 sequence (P34972 whole entry V36F)": "as the sequence (P34972 whole entry A282F) above, with V36F, F282A counted along it", "excerpt": "as §1"}, "CB2R (hCB2R) [5]": {"molecular_target": "T5, CB2R (hCB2R) (Homo sapiens, UniProt P34972, V36M)", "T5 construct": "gene CNR2; full-length hCB2R cDNA in pcDNA3.1, transiently expressed in HEK-293T cells; no tag mentioned", "T5 sequence (P34972 whole entry V36M)": "as the sequence (P34972 whole entry A282F) above, with V36M, F282A counted along it", "excerpt": "as §1"}}}
{"smiles": "CCCC(C)(C)c1ccc2c(c1)OC(C)(C)[C@@H]1CC=C(C)C[C@@H]21", "note": "[JWH-133]", "values": [{"measurement": "EC50", "setting": "CB2R (hCB2R) [1]", "result": 31.6, "unit": "nM"}, {"measurement": "EC50", "setting": "CB2R (hCB2R) [2]", "result": 316, "unit": "nM"}, {"measurement": "EC50", "setting": "CB2R (hCB2R) [3]", "result": 15.8, "unit": "nM"}, {"measurement": "EC50", "setting": "CB2R (hCB2R) [4]", "result": 158, "unit": "nM"}, {"measurement": "EC50", "setting": "CB2R (hCB2R) [5]", "result": 12.6, "unit": "nM"}]}
